Ends that are not written are not given here.
Key:
[1] = test system: antifilaggrin antibodies in human sera; assay: Line Immuno Assay (LIA): reactivity of streptavidin-complexed synthetic peptides with human sera; type: binding; conditions: for LIA signals: 26 human RA sera (Fig. 3), peptides applied at 400 µg/ml, citrulline-containing peptides versus non-modified counterparts; for Reactivity in the LIA system: 75 sera from patients fulfilling the ARA criteria for RA, 13 synthetic peptides tested; for Immunoreaction towards peptide, comparison between peptides: in all serum groups; for Reactivity of sera on synthetic peptides: sera IG35038/ 35041
Text: Human sera were obtained from the Department of Rheumatology of the University Hospital in Ghent (Belgium). In total, 265 sera were included, of which 75 fulfilled the ARA criteria for RA (Arnett et al., Arthritis Rheum.,31: 315-324, 1987), 155 sera scored positive in the APF fluorescence test (De Keyser et al., in press), 98 reacted with natural filaggrin on Western blot, 80 were APF negative and 16 were derived from healthy controls.
Streptavidin-complexed peptides were applied directly on a nylon membrane with a plastic backing. Blocked strips were incubated overnight with human sera diluted 1/100 in 1 ml PBS, 0.5% caseine, 0.1% Triton X705, 10 mM MgCl2.6H2O. After washing with PBS, 0.05% Tween20, goat anti-human IgG-AP conjugated (Promega) diluted in PBS, 0.1% caseine, 0.2% Triton X705 was added for 1h30. Strips were developed in 100 mM NaCl, 100 mM Tris-HCl, pH 9.8, 50 mM MgCl2.6H2O substrate buffer containing the chromogenic substrate NBT/ BCIP. Reaction was stopped after 30 min by addition of 0.2 N H2SO4.

anti-filaggrin binding = assay: Inhibition ELISA on plates coated with human natural filaggrin, sera preincubated with competitor; conditions: peptide as competitor at 100 µg/ml; 4 APF positive sera
Experimental: Electro-eluted human natural filaggrin was coated in Maxisorp polystyrene plates at a concentration of 1 or 4 µg/ml in 50 mM carbonate buffer, pH 9.6 overnight at 4°C. Sera were diluted 1/50 in PBS, and preincubated with either the appropriate peptides at 100 µg/ml, with isolated natural filaggrin at 1 or 10 µg/ml (positive control) or with PBS (negative control) for 2 hours. The plates were blocked 1 hour with PBS, 0.1% caseïne at 37°C and subsequently incubated with the sera. During 2 hours at 37°C. Plates were washed 5 times with PBS, 0.05% Tween 20 and incubated with anti-human IgG-HRP in PBS, 0.1 % caseïne, 0.1 mM K3Fe(CN)6. Colour development was performed using tetramethylbenzidine diluted 1/100 into 0.1 M Na2HPO4, 0.1 M citric acid, 0.006% H2O2, pH 4.3. Reaction was stopped by addition of 2N H2SO4 and OD values were measured at 450 nm using a Bio-tek ELISA reader. The percentage of inhibition was caculated as folows: [formula]

[2] = serum group APF neg., number of sera 80
[3] = serum group APF pos., number of sera 155
[4] = serum group Fg blot pos., number of sera 98
[5] = serum group Healthy, number of sera 16
[6] = serum group RA sera, number of sera 75

Sequence	LIA signals [1]	Reactivity in the LIA system [1]	Immunoreaction towards peptide, comparison between peptides [1]	Reactivity of sera on synthetic peptides [1]	Immunoreactivity of human sera with synthetic peptide: number of reactive sera [1, 2]	Immunoreactivity of human sera with synthetic peptide: percentage of reactive sera [1, 2]	Immunoreactivity of human sera with synthetic peptide: number of reactive sera [1, 3]	Immunoreactivity of human sera with synthetic peptide: percentage of reactive sera [1, 3]	Immunoreactivity of human sera with synthetic peptide: number of reactive sera [1, 4]	Immunoreactivity of human sera with synthetic peptide: percentage of reactive sera [1, 4]	Immunoreactivity of human sera with synthetic peptide: number of reactive sera [1, 5]	Immunoreactivity of human sera with synthetic peptide: percentage of reactive sera [1, 5]	Immunoreactivity of human sera with synthetic peptide: number of reactive sera [1, 6]	Immunoreactivity of human sera with synthetic peptide: percentage of reactive sera [1, 6]	number of sera significantly inhibited (anti-filaggrin binding)
DSGHRGYSGSQASDNEGH [IGP1157] (also: Arg may be citrulline in one of each IGP pair, not given here)	positive	Reactivity was noted	very faint	negative	2/61	3.3%	4/128	3.1%	4/94	4.2%	0/10	0%	3/72	4.2%	–
DSGHRGYSGSQASDNEGH [IGP1181] (also: Arg may be citrulline in one of each IGP pair, not given here) [reference compound]	disappeared completely	–	–	–	–	–	–	–	–	–	–	–	–	–	–
GGQGSRHQQAR [IGP1249]	–	Reactivity was noted	–	–	1/79	1.3%	23/150	15.3%	17/94	18.1%	1	6.3%	9/73	12.3%	–
HSASQDGQDTIRGHPGSS [IGP1155] (also: Arg may be citrulline in one of each IGP pair, not given here)	positive	Reactivity was noted	–	negative	4	5.5%	35	22.6%	35	37.2%	1	6.3%	17	22.7%	2 out of 4
HSASQDGQDTIRGHPGSS [IGP1179] (also: Arg may be citrulline in one of each IGP pair, not given here) [reference compound]	disappeared completely	–	–	–	–	–	–	–	–	–	–	–	–	–	–
HSGIGHGQASSAVRDSGHRGYS [IGP1156] (not fully specified; also: Arg may be citrulline in one of each IGP pair, not given here)	positive	Reactivity was noted	best reactive	negative	4	5.5%	50	32.2%	46	48.9%	2	12.5%	25	33.3%	–
HSGIGHGQASSAVRDSGHRGYS [IGP1180] (also: Arg may be citrulline in one of each IGP pair, not given here) [reference compound]	disappeared completely	–	–	–	–	–	–	–	–	–	–	–	–	–	–
HSTSQEGQDTIHGHRGS [IGP1158] (also: Arg may be citrulline in one of each IGP pair, not given here)	positive	Reactivity was noted	best reactive	negative	5/79	6.3%	42	27.1%	41	43.6%	1	6.3%	24	32%	1
HSTSQEGQDTIHGHRGS [IGP1182] (also: Arg may be citrulline in one of each IGP pair, not given here) [reference compound]	disappeared completely	–	–	–	–	–	–	–	–	–	–	–	–	–	–
